From patent publication US20030180295A1, “Angiocidin: a Cys-Ser-Val-Thr-Cys-Gly specific tumor cell adhesion receptor” (Philadelphia Health and Education Corporation, priority 1999, published 2003)

Tests used:
[1] = test system: Bovine aortic endothelial cells (BAEC); assay: Microvessel stability in collagen matrix; assay type: cell-based; conditions: added after 24 hours of microvessel formation, read after additional 24 hours
Description: An experiment was performed to evaluate the effect of angiocidin on angiogenesis. Bovine aortic endothelial cells (BAEC) were plated on a collagen matrix. Next, the cells were over-layered with collagen. Angiocidin (37 μg/ml) was added on top of the cells in the treatment plate, and the control plate only received buffer. After 24 hours, phase contrast photomicrographs (200×) were taken. In the control plate, the BAEC cells rearranged themselves into a network of microvessels. […] The experiment in this example was performed as in Example 16, however, no treatment was given to the cells initially. After 24 hours, microvessels formed in both samples, and looked similar to the control plate in FIG. 19. Buffer and angiocidin were then added to the control and treatment plates, respectively. After an additional 24 hours, Hoffman interference photomicrographs were taken. Here, the control was not affected.

[2] = test system: Lung Human Microvascular Endothelial Cells (HMVEC-L); assay: ALAMAR BLUE cell viability assay; assay type: cell-based; conditions: Example 26
Lewis lung carcinoma = assay: Survival of mice bearing Lewis lung carcinoma (IV injected cells); assay type: in vivo; conditions: 50 μg IV on days 1, 3, 5, 7, 9
Description: Ten mice were injected with one million Lewis lung carcinoma tumor cells in an IV injection. After 3 days of incubation, the mice were divided into two groups. One group of five mice were treated with an IV injection of 50 μg of angiocidin in Hepes buffered saline. The control group of five mice was treated with Hepes buffered saline. Mice were treated on days 1, 3, 5, 7, and 9.

[3] = test system: Bovine aortic endothelial cells (BAEC); assay: Collagen matrix angiogenesis assay (microvessel formation); assay type: cell-based; conditions: 37 μg/ml, 24 hours
Description: An experiment was performed to evaluate the effect of angiocidin on angiogenesis. Bovine aortic endothelial cells (BAEC) were plated on a collagen matrix. Next, the cells were over-layered with collagen. Angiocidin (37 μg/ml) was added on top of the cells in the treatment plate, and the control plate only received buffer. After 24 hours, phase contrast photomicrographs (200×) were taken. In the control plate, the BAEC cells rearranged themselves into a network of microvessels. […] This collagen assay is a well recognized model for angiogenesis. Qian et al., Thrombospondin-1 modulates angiogenesis in vitro by up-regulation of matrix metalloproteinase-9 in endothelial cells, Exp. Cell Res. 235:403-412 (1997).

[4] = test system: mouse Lewis lung carcinoma cells; assay: ALAMAR BLUE cell viability assay; assay type: cell-based; conditions: 0 to 37 μg/ml, 24 hours
Description: Bovine aortic endothelial cells (BAEC), human umbilical vein endothelial cells (HUVEC), fibroblast cells, A549 human lung carcinoma cells (A549), MDA-MB231 human breast carcinoma cells (MB231), MCF7 human breast carcinoma cells (MCF7) were treated with 37 μg/ml of receptor, or buffer alone, for 24 hours. Viability of the cells was measured using the ALAMAR BLUE™ assay, which measures the capacity of cells to metabolize the ALAMAR BLUE™ dye. The ALAMAR BLUE™ assay (available from Biosource International, Camarillo, Calif.) quantitatively measures the proliferation of cell lines and can establish the relative cytotoxicity of chemical agents. The assay incorporates a fluorometric/colorimetric growth indicator based on detection of metabolic activity. The system incorporates an oxidation-reduction (redox) indicator that both fluoresces and changes color in response to chemical reduction of growth medium resulting from cell growth. […] Data can be collected using either fluorescence-based instrumentation (530-560 nm excitation wavelength and 590 nm emission wavelength) or absorbance-based instrumentation (570 nm and 600 nm).
BAEC and BSM cells were treated with increasing concentrations of angiocidin (0, 0.625, 1.25, 2.5, 5, 15, 26 and 37 μg/ml) for 24 hours. Cell viability was measured using the ALAMAR BLUE Tm assay. […]

[5] = test system: MDA-MB-435 Breast Carcinoma Cells; assay: Cell adhesion to immobilized recombinant receptor; assay type: cell-based
Description: For the adhesion assay, in a 96 well plate, duplicate wells were covered with either TSP-1 (40 μg/ml), fibronectin (40 μg/ml), or and 1% bovine serum albumin (BSA). The wells were dried out overnight and then blocked with BSA. 100 μl of a suspension containing 2×10^5 cells were plated in the protein covered wells and incubated at 37^□ C. for 20 minutes to 1 hour. The non-adherent cells were removed and the wells were washed with a Hepes buffer. The adherent cells were fixed with 2.5% glutaraldehyde for 10 minutes and stained with 0.2% Giemsa. The stain was washed off and the cells were counted in a field of 1 mm square. Cells adhering to BSA were considered background while cells adhering to fibronectin were the positive control.
The method of Example 12 was followed except the whole receptor protein was immobilized on the plates, and cells transfected with either TSP-1 cDNA or a vector control were applied to the plates. The cells, which naturally express a low level of TSP-1, were transfected to over express the protein. […] Fibronectin and BSA were used as positive and negative controls, respectively, for cell adhesion. This evidence bolsters the theory that the receptor of the present invention binds to thrombospondin.
This specific interaction was confirmed by adding anti-TSP-1 antibodies, Anti-Cys-Ser-Val-Cys-Thr-Gly (SEQ ID NO: 1), and control IgG to the system.

[6] = test system: Human Aortic Endothelial Cells (HAEC); assay: ALAMAR BLUE cell viability assay; assay type: cell-based; conditions: Example 26
[7] = test system: human umbilical vein endothelial cells (HUVEC); assay: ALAMAR BLUE cell viability assay; assay type: cell-based; conditions: 24 hours
Description: Bovine aortic endothelial cells (BAEC), human umbilical vein endothelial cells (HUVEC), fibroblast cells, A549 human lung carcinoma cells (A549), MDA-MB231 human breast carcinoma cells (MB231), MCF7 human breast carcinoma cells (MCF7) were treated with 37 μg/ml of receptor, or buffer alone, for 24 hours. Viability of the cells was measured using the ALAMAR BLUE™ assay, which measures the capacity of cells to metabolize the ALAMAR BLUE™ dye. The ALAMAR BLUE™ assay (available from Biosource International, Camarillo, Calif.) quantitatively measures the proliferation of cell lines and can establish the relative cytotoxicity of chemical agents. The assay incorporates a fluorometric/colorimetric growth indicator based on detection of metabolic activity. The system incorporates an oxidation-reduction (redox) indicator that both fluoresces and changes color in response to chemical reduction of growth medium resulting from cell growth. This causes the redox indicator to change from its oxidized, non-fluorescent, blue form to its reduced, fluorescent, red form. Data can be collected using either fluorescence-based instrumentation (530-560 nm excitation wavelength and 590 nm emission wavelength) or absorbance-based instrumentation (570 nm and 600 nm).
Similarly, the effect of receptor on viability of BAEC cells was compared to mouse Lewis lung carcinoma cells, using the same method.
The effect of angiocidin on HUVEC cell viability was evaluated, and FGF and TSP-1 were added to determine whether they ameliorated the angiocidin effect on cell viability. FGF (Fibroblast Growth Factor) is an endothelial cell mitogen, which promotes cell growth. […] TSP-1 was expected to reverse the inhibition of angiocidin; however, quantities added may have been insufficient to provide the correct molar ratio.

TSP-1 = TSP-1 (Homo sapiens, UniProt P07996); assay: Optical binding of angiocidin fragments to TSP-1 derivatized cuvette; conditions: test proteins at 10 nm in PBS buffer
Description: This study examines the amino terminal (Met1-Lys132) and carboxy terminal (IIe248-Lys380) portions of angiocidin (SEQ ID NOS: 24 and 25, respectively). The binding of undenatured recombinant angiocidin fragments was compared to full length angiocidin. GST was used as a negative control. Binding was evaluated using an optical binding method that uses a cuvette to which TSP-1 is covalently coupled. A laser beam was used to detect whether the test protein (fragments, angiocidin, or GST) is bound to the TSP-1 derivatized cuvette surface. The cuvette was derivatized with 1 μg of TSP-1. The cuvette surfaces were blocked with a 1% BSA solution to prevent nonspecific binding. The test proteins were added at a concentration of […] in a PBS buffer.

Sequence of TSP-1 (P07996 19-1170): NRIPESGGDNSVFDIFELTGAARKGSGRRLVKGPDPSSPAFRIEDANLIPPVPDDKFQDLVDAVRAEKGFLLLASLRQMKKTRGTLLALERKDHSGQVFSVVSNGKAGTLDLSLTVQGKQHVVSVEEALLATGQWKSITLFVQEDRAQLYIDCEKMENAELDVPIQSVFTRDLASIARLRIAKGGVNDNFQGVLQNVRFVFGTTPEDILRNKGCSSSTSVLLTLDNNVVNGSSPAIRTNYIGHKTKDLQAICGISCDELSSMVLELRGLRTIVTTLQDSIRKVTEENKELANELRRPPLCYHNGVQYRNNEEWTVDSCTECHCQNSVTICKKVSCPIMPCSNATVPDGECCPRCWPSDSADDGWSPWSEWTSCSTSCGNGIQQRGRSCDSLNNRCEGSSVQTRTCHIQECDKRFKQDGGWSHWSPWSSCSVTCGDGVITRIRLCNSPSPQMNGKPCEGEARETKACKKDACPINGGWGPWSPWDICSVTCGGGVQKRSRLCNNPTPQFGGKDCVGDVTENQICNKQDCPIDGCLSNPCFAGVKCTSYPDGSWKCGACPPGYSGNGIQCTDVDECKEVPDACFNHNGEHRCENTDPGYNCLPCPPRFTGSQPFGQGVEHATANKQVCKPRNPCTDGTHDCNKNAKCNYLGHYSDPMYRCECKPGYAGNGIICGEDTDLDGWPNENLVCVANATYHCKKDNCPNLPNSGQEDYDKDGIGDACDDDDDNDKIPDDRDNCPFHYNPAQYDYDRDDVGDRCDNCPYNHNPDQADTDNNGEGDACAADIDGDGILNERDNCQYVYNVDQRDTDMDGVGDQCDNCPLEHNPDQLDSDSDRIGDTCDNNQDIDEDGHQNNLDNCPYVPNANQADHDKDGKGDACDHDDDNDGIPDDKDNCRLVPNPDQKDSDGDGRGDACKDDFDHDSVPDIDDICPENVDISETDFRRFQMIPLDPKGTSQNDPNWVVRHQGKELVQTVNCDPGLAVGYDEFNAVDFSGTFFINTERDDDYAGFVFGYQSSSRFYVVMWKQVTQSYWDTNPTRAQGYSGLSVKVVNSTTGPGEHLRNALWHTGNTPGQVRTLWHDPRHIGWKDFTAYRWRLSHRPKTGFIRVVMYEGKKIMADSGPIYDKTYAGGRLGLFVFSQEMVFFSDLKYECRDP

For “angiocidin: Cys-Ser-Val-Thr-Cys-Gly (SEQ ID NO: 1)-specific thrombospondin (TSP-1) receptor protein; recombinant form of SEQ ID NO: 2 used in the Examples”, the “stability of formed microvessels” value [1] was “disrupted the microvessels that had already formed”, the cell viability [2] was “negative effect on the viability of both cell lines” and the median survival period (Lewis lung carcinoma) was 19 days. For the same substance, the microvessel formation [3] was “the microvessels did not form and the cells appeared dead”, the cell viability [4] was “does not affect the Lewis lung cells” and the “inhibition of cell adhesion to receptor bound to the plate by unbound receptor” value ([5]; nontransfected, naturally TSP-1 expressing cells, FIG. 17) was “reduced the adhesion of the cells to the plate”. The “adhesion of TSP-1 cDNA transfected cells to plates with receptor protein relative to control cell line” value ([5]; p<0.001) was 2.5 times, the cell viability [6] was “negative effect on the viability of both cell lines” and the cell viability ([7]; 0 to 37 μg/ml) was “decreasing their viability”. For the same substance, the “decrease of cell viability” value ([7]; 37 μg/ml) was 70-80% and the “binding to TSP-1 derivatized cuvette” value (TSP-1) was “show very similar binding at the nano molar range”.
